Reference: patent US6890954B1, “Uses of 2-bromopalmitate in the treatment of autoimmune disease” (priority 1999, dated 2005)

What was measured:
Assay type in all cases: cell-based
GAP43(10)-Fyn = experiment: Membrane binding of GAP43(10)-Fyn chimera in COS-1 cells; conditions: COS-1, 2-bromopalmitate overnight, 2 hours label
Experimental: (§1) For analysis of newly synthesized Fyn, cells were cultured overnight as descibed above, then starved for 1 hr in DMEM minus methionine and cysteine containing 2% dialyzed FBS, 0.5% defatted BSA with or without 100 μM 2-bromopalmitate. Cells were labeled for 5 minutes with Trans^35S-Label (ICN, Irvine, Calif.), then fractionated as described above. Gels were treated for 20 minutes with 1M salicylic acid prior to drying. The Gαo(10)-Fyn chimera was labeled for 5 min and GAP-43 Fyn chimera was labeled for 2 hours and fractionated according to the above conditions.
(§2) Each of these three sequences was appended onto the Fyn protein. Gαo(10)-Fyn and GAP43(10)-Fyn are chimeric constructs with the first 10 amino acids of Gαo or GAP-43, respectively, in place of the first 10 amino acids of wt Fyn. These constructs have been previously described (12,13). In addition, the H-Ras tail was fused to the C-terminus of a non-acylated Fyn mutant (G2A,C3SFyn-HRas). This construct contains full length Fyn with mutations in the N-terminal myristoylation and palmitoylation sites, but with the C-terminus of H-Ras available for prenylation and palmitoylation.

Lck = experiment: DRM (raft) localization in activated Jurkat cells, sucrose gradient: Lck; conditions: 100 μM 3 hours, OKT3 activated, control 59%
Experimental: Isolation of Triton X-100 resistant and soluble fractions was carried out as described previously (12). Isolation of detergent resistant microdomains by sucrose gradients were carried out as follows (19): Jurkat cells (5×10^7) were treated with 2-bromopalmitate, activated with OKT3 mAb as described above, and lysed in 1 ml lysis buffer (25 mM MES pH 6.5, 150 mM NaCl, 0.5% Triton X-100, 1 mM Na3VO4) supplemented with protease inhibitors for 30 minutes at 0° C. After homogenizing 10 times with a loose fit Dounce homogenizer, lysates were mixed with 1 ml 85% sucrose in MBS (25 mM MES pH 6.5, 150 mM NaCl), and overlayered with 6 ml 30% sucrose in MBS, then with 4 ml 5% sucrose in MBS. Following centrifugation for 16 hours at 145,000 g in an SW40 rotor, 1 ml fractions were collected and analyzed by PAGE and immunoblotting with anti-Fyn, anti-LAT, or anti-Lck antibodies.
The ability of 2-bromopalmitate to inhibit localization of palmitoylated proteins to detergent resistant microdomains in activated Jurkat cells was examined next. Cells were either left untreated or treated with 100 μM 2-bromopalmitate for 3 hours, washed, resuspended in serum-free media, and the TCR was activated with OKT3 mAb. Activated cells were extracted with Triton X-100 containing buffer. […] Each fraction was analyzed by immunoblotting with specific antibodies. […]

Fyn = biological target: T1, Fyn (Homo sapiens, UniProt P06241); experiment: Fyn fatty acylation (IC13/IC16 incorporation) in transfected COS-1 cells; conditions: COS-1 cells, 100 μM 2-bromopalmitate, normalized for total protein levels
T1 construct: expressed in transfected cells; host or cells: COS-1
Experimental: The syntheses of 13-[^125I]-iodotridecanoic acid (IC13)or 16-[^125I]-iodohexanoic acid (IC16) were carried out as described previously (39). Cell labeling was carried out as described (12,13) with modifications. Briefly, each 60 mm plate of Fyn transfected COS-1 cells was incubated O/N in DMEM containing 2.5% FBS, 0.5% defatted BSA (Sigma) with or without 100 μM 2-bromopalmitate or 50 μM polyunsaturated fatty acid. Prior to labeling, the cells were incubated for 1 hr with 1 ml of DMEM containing 2% dialyzed FBS, then labeled for 4 hours with 25-50 μCi IC13 or IC16 in DMEM containing 2% dialyzed FBS, 0.5% defatted BSA with or without 2-bromopalmitate or polyunsaturated fatty acid. Labeled cells were washed three times with cold STE (100 mM NaCl, 10 mM Tris pH 7.4, 1 mM EDTA) and lysed in 0.6 ml of cold RIPA buffer containing protease inhibitors (10 μg/ml each of benzamidine, AEBSF, TPCK and TLCK, 1.5 μg/ml each of Leupeptin, Pepstatin A and Aprotinin). Lysates were clarified at 100,000×g for 15 min at 4° C. in a Beckman TL-100 ultracentrifuge. Lysates were immunoprecipitated with rabbit anti-Fyn antibody and protein A-agarose. Immunoprecipitates were washed three times with cold RIPA buffer and suspended in 1× sample buffer containing 100 mM dithiothreitol and subjected to SDS-PAGE. Gels were dried between cellophane and analyzed by phosphorimaging after 12-36 hours exposure. Experiments in Jurkat T cells were carried out according to the above protocol using 2×10^7 cells per experiment, and reducing the incubation time with 2-bromopalmitate to 3-4 hours.
A number of palmitic acid analogs were screened for their ability to inhibit Fyn palmitoylation. COS-1 cells were transfected with cDNA encoding Fyn. Three days after transfection, the cells were labeled with either [^35S]-methionine, 13-[^125I]-iodotridecanoic acid (IC13), an iodinated myristate analog, or 16-[^125I]-iodohexanoic acid (IC16), an iodinated palmitic acid analog (39), in the presence or absence of nonradioactive palmitate analogs. Cells were lysed, immunoprecipitated with anti-Fyn antibody, and analyzed by SDS-PAGE and phosphorimaging. […] When normalized for total protein levels, 70% of Fyn myristoylation and over 90% of Fyn palmitoylation was inhibited in the presence of 2-bromopalmitate. Treatment of cells with other analogs, including 2-hydroxypalmitate, palmitoleic acid and 16-hydroxypalmitate had no effect (data not shown).
To test this hypothesis, Fyn transfected COS-1 cells were incubated O/N with or without 50 μM arachidonic acid (20:4) or eicosapentaenoic acid (20:5), then labeled with IC13 or IC16. Total protein levels were monitored by immunoblotting aliquots of each sample with anti-Fyn antibody (FIG. 8A, lower panel).

GαO(10)-Fyn = experiment: Membrane binding of Gαo(10)-Fyn chimera in COS-1 cells; conditions: COS-1, 2-bromopalmitate overnight, 5 min label
Experimental: as §1, §2

T1 sequence (P06241 whole entry, species assumed): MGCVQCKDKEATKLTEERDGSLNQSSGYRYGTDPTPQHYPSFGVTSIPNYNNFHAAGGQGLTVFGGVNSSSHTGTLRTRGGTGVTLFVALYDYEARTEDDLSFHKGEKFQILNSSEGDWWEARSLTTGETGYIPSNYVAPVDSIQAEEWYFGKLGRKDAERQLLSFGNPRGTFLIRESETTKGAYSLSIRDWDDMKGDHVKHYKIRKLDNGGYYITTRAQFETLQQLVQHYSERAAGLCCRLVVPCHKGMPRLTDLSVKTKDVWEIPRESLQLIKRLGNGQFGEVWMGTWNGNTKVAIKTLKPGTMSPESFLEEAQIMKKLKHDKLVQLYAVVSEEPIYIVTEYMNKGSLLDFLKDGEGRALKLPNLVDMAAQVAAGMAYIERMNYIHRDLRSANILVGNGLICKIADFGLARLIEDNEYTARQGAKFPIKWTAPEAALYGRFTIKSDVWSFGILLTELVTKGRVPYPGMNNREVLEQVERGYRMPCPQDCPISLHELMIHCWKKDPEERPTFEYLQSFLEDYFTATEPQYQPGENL

In the case of CCCCCCCCCCCCCCC(Br)C(=O)O (centres unmarked) [2-bromopalmitate], the “inhibition of membrane binding of GAP43(10)-Fyn” value (GAP43(10)-Fyn) is reported as “to the same extent as wt Fyn”, the “Lck found in the rafts” value (Lck) is reported as 19% and the Fyn myristoylation inhibited (Fyn; IC13 label) is reported as 70%. For the same compound, the Fyn palmitoylation inhibited (Fyn; IC16 label) was “over 90%” and the “inhibition of membrane binding of GαO(10)-Fyn” value (GαO(10)-Fyn) was “to the same extent as wt Fyn”.
